The values below come from ChEMBL document CHEMBL1155168, “Bound to shock: protection from lethal endotoxemic shock by a novel, nontoxic, alkylpolyamine lipopolysaccharide sequestrant” (Antimicrob Agents Chemother, 2007).

One series deals with J774.A1. In words: Inhibition of LPS-stimulated nitric oxide production in mouse J774A.1 cells after 16 hrs. It counts as functional, cell-based.
Series [1] is described as follows: Inhibition of LPS-stimulated NF-kappaB induction in HEK-Blue cells assessed as expression of secreted alkaline phosphatase by seAP assay. It counts as cell-based.
The nature of series [2]: Inhibition of Escherichia coli O111:B4 lipopolysaccharide-stimulated NF-kappaB induction in HEK-Blue cells assessed as expression of secreted alkaline phosphatase by seAP assay. It counts as cell-based.
Series [3] in a line: Inhibition of Escherichia coli 055:B5 lipopolysaccharide-stimulated NF-kappaB induction in HEK-Blue cells assessed as expression of secreted alkaline phosphatase by seAP assay. The series is classed as cell-based.
A short description of series [4]: Inhibition of Salmonella enterica serovar Abortus equi lipopolysaccharide-stimulated NF-kappaB induction in HEK-Blue cells assessed as expression of secreted alkaline phosphatase by seAP assay. It counts as cell-based.
Series [5] can be described thus: Inhibition of Pseudomonas aeruginosa lipopolysaccharide-stimulated NF-kappaB induction in HEK-Blue cells assessed as expression of secreted alkaline phosphatase by seAP assay. It counts as cell-based.
A short description of series [6]: Ex vivo inhibition of Escherichia coli lipopolysaccharide-stimulated TNFalpha production in human whole blood by multiplexed flow cytometric bead array system. It counts as tissue-based.
A short description of series [7]: Ex vivo inhibition of Escherichia coli lipopolysaccharide-stimulated IL6 production in human whole blood by multiplexed flow cytometric bead array system. It counts as tissue-based.
A short description of series [8]: Ex vivo inhibition of Escherichia coli lipopolysaccharide-stimulated IL8 production in human whole blood by multiplexed flow cytometric bead array system. The series is classed as tissue-based.
Series [9] is described as follows: Inhibition of Vibrio cholerae lipopolysaccharide-stimulated NF-kappaB induction in HEK-Blue cells assessed as expression of secreted alkaline phosphatase by seAP assay. It counts as cell-based.
The subject of series [10] is Escherichia coli. In words: Displacement of BODIPY-cadaverine from Escherichia coli O111:B4 lipopolysaccharide.
Series [11] concerns HEK-Blue. In words: Inhibition of TNF-alpha-stimulated NF-kappaB induction in HEK-Blue cells assessed as expression of secreted alkaline phosphatase by seAP assay. The series is classed as functional, cell-based. Particulars: Homo sapiens.
Series [12] relates to HEK-Blue. In words: Inhibition of phorbol esters-stimulated NF-kappaB induction in HEK-Blue cells assessed as expression of secreted alkaline phosphatase by seAP assay. It counts as functional, cell-based. Particulars: Homo sapiens.
In series [13] the test system is HEK-Blue. In words: Inhibition of ionomycin-stimulated NF-kappaB induction in HEK-Blue cells assessed as expression of secreted alkaline phosphatase by seAP assay. The series is classed as functional, cell-based. As to conditions: Homo sapiens.
Series [14] concerns HEK-Blue. In words: Inhibition of IL-1-beta-stimulated NF-kappaB induction in HEK-Blue cells assessed as expression of secreted alkaline phosphatase by seAP assay. It counts as functional, cell-based. Particulars: Homo sapiens.
The subject of series [15] is Escherichia coli. In words: Ex vivo inhibition of Escherichia coli lipopolysaccharide-stimulated T180/Y182 dual phosphorylation of p38 MAPK in human whole blood by flow cytometry. It counts as tissue-based.
For a further series, the system named is Blood. In words: Ex vivo inhibition of TNF-alpha-stimulated T180/Y182 dual phosphorylation of p38 MAPK in human whole blood by flow cytometry. The series is classed as functional, tissue-based.
Series [16] concerns Mus musculus. In words: Increase in survivality of ip dosed D-galactosamine-primed mouse model of LPS-induced lethal septic shock administered as precomplex with LPS. The series is classed as functional, organism-based.
Series [17] relates to Mus musculus. In words: Increase in survivality of sc dosed D-galactosamine-primed CF1 mouse model of LPS-induced lethal septic shock administered 1 hr prior to LPS challenge. It counts as functional, organism-based.
In series [18] the test system is Mus musculus. In words: Increase in survivality of sc dosed D-galactosamine-primed mouse model of TNF-alpha-induced lethal septic shock. The series is classed as functional, organism-based.
The test system of series [19] is Mus musculus. In words: Toxicity in mouse at 40 mg/kg/day, sc after 5 days. Particulars: in vivo, 120 h. Further details: route subcutaneous. It counts as organism-based.
Series [20] concerns Mus musculus. In words: Toxicity in mouse in mouse assessed as polyamine level in plasma at 40 mg/kg/day, sc for 5 days relative to control. It counts as organism-based. Further details: route subcutaneous. Particulars: in vivo, 120 h.
For series [21], the system named is Mus musculus. In words: Inhibition of LPS-induced cytokines levels in D-galactosamine-primed mouse model of at 4 mg/kg, sc. The series is classed as functional, organism-based. Further details: dose 4 mg/kg.

Activity calls are given as the source filed them. The calls are words filed in the database; no cut-off is given here.

For POLYMYXIN B [listing 1 of 2 here], the IC50 in the series with J774.A1 (j774.a1) is 27 nM; in series [1] (hek-blue), 32 nM; in [2] (hek-blue), 30 nM; in series [3] (hek-blue) it was 30 nM; in series [4] (hek-blue), 562 nM; in series [5] (hek-blue), 30 nM. The IC50 amounted to 11000 nM in [6], 11000 nM in series [7], 11000 nM in series [8] and 30 nM in [9] (hek-blue).
In the case of POLYMYXIN B [listing 2 of 2 here], the ED50 with Escherichia coli [10] was 1310 nM. In addition, the outcome with HEK-Blue [11], with HEK-Blue [12], in the series with HEK-Blue [13], with HEK-Blue [14] and with Blood was inactive. The Activity result with Escherichia coli [15], in the series on Mus musculus [16] and in the series on Mus musculus [17] was “Dose-dependent effect” in each case.
Turning to `CCCCCCCCCCCCCCCCNCCCNCCCNCCCCNCCCN.O=C(O)C(F)(F)F`, in the series on Escherichia coli [10], the ED50 came to 1200 nM. Besides, the IC50 in the series on J774.A1 (Mus musculus, J774.A1, 16 h) was found to be 21 nM; in series [1] (HEK-Blue) it was 32 nM; in series [2] (Escherichia coli, HEK-Blue), 30 nM; in series [3] (Escherichia coli, HEK-Blue), 30 nM; in [4] (Salmonella enterica, HEK-Blue) it was 82 nM; in series [5] (Pseudomonas aeruginosa, HEK-Blue) it was 30 nM. In addition, the IC50 amounted to 3000 nM in series [6] (Escherichia coli, Blood); 3000 nM in series [7] (Escherichia coli, Blood); 3000 nM in series [8] (Escherichia coli, Blood); 30 nM in [9] (Vibrio cholerae, HEK-Blue). Further, the outcome in the series with HEK-Blue [11], in the series on HEK-Blue [12], in the series on HEK-Blue [13], in the series on HEK-Blue [14], in the series with Blood and with Mus musculus [18] was inactive. Also, the Activity result in the series on Mus musculus [16] is “Dose-dependent effect”; with Mus musculus [17], “Dose-dependent effect”; in the series with Mus musculus [19] it was “Non-toxic”; in the series with Mus musculus [20], “Non-toxic”. In addition, the outcome with Mus musculus [21] was Active.
